Laboratory results taken from patent US12678423B2, “Therapeutic agent for amyotrophic lateral sclerosis and composition for treatment” (KEIO UNIVERSITY, priority 2016, dated 2026).

How the values were obtained:
Type in all cases: cell-based, human
Conditions in all cases: final concentration 10 μM, added days 35 to 40
[1] = tested on: motor neurons induced to differentiate from iPS cells derived from ALS patients (TDP-43-ALS) having a mutation in TDP-43; test: LDH leakage ratio, TDP-43-ALS motor neurons
Experimental: (§1) The leakage amount of LDH into the medium is an indicator of cytotoxicity. For measurement of the LDH leakage ratio, a commercially available kit (model “LDH Cytotoxicity Detection Kit”, Takara Bio Inc.) was used.
(§2) Here, ropinirole was added to the medium on days 35 to 40 from the start of the differentiation induction of each iPS cell. Here, it is assumed that days 35 to 40 from the start of differentiation induction correspond to the early stage of the ALS disease.
(§3) The improvement ratio (%) of the ALS phenotype was calculated by Equation (1).
(§4) [formula] [In Equation (1), A represents a measurement value of motor neurons induced to differentiate from iPS cells derived from ALS patients in the absence of ropinirole, and B represents a measurement value of motor neurons induced to differentiate from iPS cells derived from ALS patients in the presence of ropinirole, and C represents a measurement value of motor neurons induced to differentiate from iPS cells derived from healthy subjects in the absence of ropinirole.]
(§5) Subsequently, in the same manner as above, the efficacy in cases of administering lower concentrations of ropinirole was evaluated.
(§6) Each drug was added to the medium at a final concentration of 10 μM.

[2] = tested on: motor neurons induced to differentiate from iPS cells derived from ALS patients (TDP-43-ALS) having a mutation in TDP-43; test: Phosphorylated TDP-43 protein inclusion formation, TDP-43-ALS motor neurons
Text: Therefore, on day 40 from the start of differentiation induction, each differentiation-induced motor neuron in Example I-1 was immunostained and the formation of phosphorylated TDP-43 protein inclusions was examined.
(§7) Using the differentiation-induced motor neurons in Example I-1, drugs which cause the ALS phenotype to be restored were screened from existing drug libraries with the neurite length, ectopic localization of FUS protein, stress granule formation, LDH leakage ratio, CV-caspase 3-positive ratio, phosphorylated TDP-43 protein inclusion formation, and the like as indices.
(§8) As a result of the screening, ropinirole was found as a promising therapeutic agent for ALS. Tables 5 and 6 show the improvement ratio (%) in the ALS phenotype due to adding ropinirole to the medium. Here, ropinirole was added to the medium on days 35 to 40 from the start of the differentiation induction of each iPS cell. Here, it is assumed that days 35 to 40 from the start of differentiation induction correspond to the early stage of the ALS disease.
as §3, §4, §5, §6

[3] = tested on: motor neurons induced to differentiate from iPS cells derived from ALS patients (FUS-ALS) having a mutation in FUS; test: LDH leakage ratio, FUS-ALS motor neurons
Experimental: as §1, §2, §3, §4, §5, §6

[4] = tested on: motor neurons induced to differentiate from iPS cells derived from ALS patients (FUS-ALS) having a mutation in FUS; test: Stress granule formation (G3BP immunostaining), FUS-ALS motor neurons
Experimental: On day 40 from the start of differentiation induction, the formation of stress granules was examined using each differentiation-induced motor neuron in Example I-1. The detection of stress granules was performed by immunostaining with G3BP, which is a marker of stress granules.
as §7, §8, §3, §4, §5, §6

[5] = tested on: motor neurons induced to differentiate from iPS cells derived from ALS patients (FUS-ALS) having a mutation in FUS; test: Ectopic localization of FUS protein in the cytoplasm, FUS-ALS motor neurons
Text: Therefore, on day 40 from the start of differentiation induction, each differentiation-induced motor neuron in Example I-1 was immunostained and the localization of FUS protein in the cytoplasm was examined.
as §7, §8, §3, §4, §5, §6

[6] = tested on: motor neurons induced to differentiate from iPS cells derived from ALS patients (TDP-43-ALS) having a mutation in TDP-43; test: Neurite length, TDP-43-ALS motor neurons (screening, Example I-8)
Experimental: (§9) For each differentiation-induced motor neuron in Example I-1, the changes over time in the neurite length were measured. A Bio station CT (Nikon Corp.) was used to measure the neurite length over time. FIG. 1 is a graph showing measurement results of changes over time in the neurite length. The vertical axis represents neurite length (relative value), and the horizontal axis represents the number of days of culturing from the start of differentiation induction.
as §7, §8, §3, §4, §5, §6

[7] = tested on: motor neurons induced to differentiate from iPS cells derived from ALS patients (FUS-ALS) having a mutation in FUS; test: Neurite length, FUS-ALS motor neurons (screening, Example I-8)
Experimental: as §9, §7, §8, §3, §4, §5, §6

| Structure (SMILES) | LDH leakage ratio improvement ratio [1] [%] | TDP-43 inclusion formation improvement ratio [2] [%] | LDH leakage ratio improvement ratio [3] [%] | Stress granule formation improvement ratio [4] [%] | Ectopic localization of FUS protein improvement ratio [5] [%] | Neurite length improvement ratio [6] [%] | Neurite length improvement ratio [7] [%] |
| --- | --- | --- | --- | --- | --- | --- | --- |
| CO/N=C(\C(=O)N[C@@H]1C(=O)N2C(C(=O)O)=C(CSc3nc(=O)c(=O)[nH]n3C)CS[C@H]12)c1csc(N)n1 [Ceftriaxone] | 15.1 | 35.4 | 21.2 | 11.0 | 22.6 | 20.4 | 36.3 |
| CC1=NN(c2ccccc2)C(=O)C1 [Edaravone] | 23.2 | 11.6 | 12.4 | 19.8 | 20.4 | 14.2 | 15.9 |
